We go through 6 compounds from ChEMBL document CHEMBL1147271, “New cytotoxic metabolites from a marine sponge Homaxinella sp” (2004).

Converted amounts (≈) assume the structure as drawn. A value given as a limit tells only on which side of the number the result lay.

Format in all cases: functional
Holding throughout (details): read-out: ED50 (the source's name)

In one assay the test system is SK-MEL-2. The assay is described as follows: Cytotoxicity against human SK-MEL-2 cells.
The test system of a further assay is A549. The assay is described as follows: Cytotoxicity against human A549 cells.
The subject of the next assay is XF498. The assay is described as follows: Cytotoxicity against human XF498 cells.
Another assay concerns HCT-15. The assay is described as follows: Cytotoxicity against human HCT15 cells.
A further assay concerns SK-OV-3. The assay is described as follows: Cytotoxicity against human SKOV3 cells.

With `CC/C=C/C/C=C\C/C=C\C/C=C\C[C@@]1(OC)C=CC(=O)O1` [HOMAXINOLIDE C], the EC50 in the assay with SK-MEL-2 is 14.9 µg/mL (≈ 49.3 µM); with A549, > 30 µg/mL; in the assay on XF498, > 30 µg/mL; with HCT-15, 34.8 µg/mL (≈ 115 µM); with SK-OV-3, > 30 µg/mL.

Take `CCCCC/C=C\C/C=C\C/C=C\C[C@@]1(OC)C=CC(=O)O1` [HOMAXINOLIDE A]: the EC50 is 2.7 µg/mL (≈ 8.87 µM) in the assay on SK-MEL-2; 10.1 µg/mL (≈ 33.2 µM) in the assay with A549; 9.9 µg/mL (≈ 32.5 µM) in the assay with XF498; 8.9 µg/mL (≈ 29.2 µM) in the assay on HCT-15; 16.1 µg/mL (≈ 52.9 µM) in the assay with SK-OV-3.

Take `CCCCC/C=C\C/C=C\C/C=C\C[C@@]1(O)C=CC(=O)C1`: the EC50 in the assay with SK-MEL-2 worked out at 2.6 µg/mL (≈ 9.01 µM); with A549 it was 5.4 µg/mL (≈ 18.7 µM); in the assay with XF498 it was 4.9 µg/mL (≈ 17 µM); in the assay on HCT-15, 2.9 µg/mL (≈ 10.1 µM); with SK-OV-3, 4.4 µg/mL (≈ 15.3 µM).

With `COc1cccc2c1C(=O)c1c(O)c3c(c(O)c1C2=O)C[C@@](O)(C(=O)CO)C[C@@H]3O[C@H]1C[C@H](N)[C@H](O)[C@H](C)O1` [DOXORUBICIN], the EC50 with SK-MEL-2 is 0.12 µg/mL (≈ 0.221 µM); in the assay on A549, 0.07 µg/mL (≈ 0.129 µM); in the assay on XF498, 0.12 µg/mL (≈ 0.221 µM); in the assay on HCT-15, 0.17 µg/mL (≈ 0.313 µM); in the assay on SK-OV-3, 0.24 µg/mL (≈ 0.442 µM).

For `CC/C=C\C/C=C\C/C=C\C/C=C\C[C@]1(OC)C=CC(=O)O1` [HOMAXINOLIDE B], the EC50 in the assay with SK-MEL-2 is 4.5 µg/mL (≈ 14.9 µM); with A549, 32.1 µg/mL (≈ 106 µM); in the assay on XF498 it was > 30 µg/mL; in the assay on HCT-15, 17.5 µg/mL (≈ 57.9 µM); in the assay on SK-OV-3, > 30 µg/mL.

In the case of `CCCCC/C=C\C/C=C\C/C=C\CO`, the EC50 in the assay with SK-MEL-2 is 74.1 µg/mL (≈ 356 µM); with A549, > 30 µg/mL; in the assay on XF498, 30 µg/mL (≈ 144 µM); in the assay with HCT-15 it was 25.5 µg/mL (≈ 122 µM); in the assay on SK-OV-3, 19.8 µg/mL (≈ 95 µM).
